According to patent US10882882B2, “Post fermented tea-derived kaempferol-based compound” (AMOREPACIFIC CORPORATION, priority 2016, dated 2021):

Key:
beta amyloid (Aβ1-42) = target: T1, beta amyloid (Aβ1-42) (Homo sapiens, UniProt P05067); experiment: Inhibition of beta amyloid aggregation, fluorescence analysis (ThioflavinT assay); format: biochemical
T1 construct: beta amyloid (Aβ1-42, AnaSpec Inc, USA); purchased AnaSpec Inc, USA
Description: The effect of kaempferol3-O-[2-O″-(E)-p-coumaroyl][beta-D-glucopyranosyl-(1→3)-O-alpha-L-rhamnopyranosyl-(1→6)-O-beta-D-glucopyranoside] on inhibition of beta amyloid aggregation was confirmed by the fluorescence analysis (ThioflavinT assay). Specifically, beta amyloid (Aβ1-42, AnaSpec Inc, USA) was obtained and used at a concentration of 0.1 mg/ml and stored at −80° C. before use. Morin (20 μM), phenol red (20 μM), and kaempferol3-O-[2-O″-(E)-p-coumaroyl][beta-D-glucopyranosyl-(1→3)-O-alpha-L-rhamnopyranosyl-(1→6)-O-beta-D-glucopyranoside] (1 mg/ml) were respectively diluted with DMSO so as to be adjusted to the concentrations. In order to specify the degree of inhibition of Aβ1-42 aggregation, each of the compounds prepared at the above concentrations was diluted with 50 μL of 0.01 M sodium phosphate buffer solution to have a concentration of 10 μM, then 40 μL of 0.1 mg/ml of Aβ1-42 was added thereto, and then 10 μl of 2 mM thioflavinT was added thereto, and fluorescence was measured using a fluorescence spectrometer (RF-5300PC, SHIMADZU CORPORATION, Japan) at 37° C. for 150 minutes at intervals of 5 minutes. In the above table, “RFU” denotes the relative fluorescence unit, and “Increased RFU” denotes the amount of aggregated beta amyloid, and “Increased RFU (% of Pos.Cont.)” denotes the percentage value of the amount of aggregated beta amyloid with respect to that of the positive control group. “Novel substance 33” denotes kaempferol3-O-[2-O″-(E)-p-coumaroyl][beta-D-glucopyranosyl-(1→3)-O-alpha-L-rhamnopyranosyl-(1→6)-O-beta-D-glucopyranoside].

healthy adult subjects = experiment: Human repeated insult patch test (HRIPT), cumulative skin irritation; format: in vivo; settings: for Number of subjects showed ± reactivity, 1st time / Number of subjects showed + reactivity, 1st time / Number of subjects showed ++ reactivity, 1st time: 1st patch; for Number of subjects showed ± reactivity, 1st time / Number of subjects showed ± reactivity, 2nd time / Number of subjects showed ± reactivity, 3rd time / Number of subjects showed ± reactivity, 4th time / Number of subjects showed ± reactivity, 5th time / Number of subjects showed ± reactivity, 6th time / Number of subjects showed ± reactivity, 7th time / Number of subjects showed ± reactivity, 8th time / Number of subjects showed ± reactivity, 9th time: 1st of 3 lines (±); for Number of subjects showed + reactivity, 1st time / Number of subjects showed + reactivity, 2nd time / Number of subjects showed + reactivity, 3rd time / Number of subjects showed + reactivity, 4th time / Number of subjects showed + reactivity, 5th time / Number of subjects showed + reactivity, 6th time / Number of subjects showed + reactivity, 7th time / Number of subjects showed + reactivity, 8th time / Number of subjects showed + reactivity, 9th time: 2nd of 3 lines (+); for Number of subjects showed ++ reactivity, 1st time / Number of subjects showed ++ reactivity, 2nd time / Number of subjects showed ++ reactivity, 3rd time / Number of subjects showed ++ reactivity, 4th time / Number of subjects showed ++ reactivity, 5th time / Number of subjects showed ++ reactivity, 6th time / Number of subjects showed ++ reactivity, 7th time / Number of subjects showed ++ reactivity, 8th time / Number of subjects showed ++ reactivity, 9th time: 3rd of 3 lines (++); for Number of subjects showed ± reactivity, 2nd time / Number of subjects showed + reactivity, 2nd time / Number of subjects showed ++ reactivity, 2nd time: 2nd patch; for Number of subjects showed ± reactivity, 3rd time / Number of subjects showed + reactivity, 3rd time / Number of subjects showed ++ reactivity, 3rd time: 3rd patch; for Number of subjects showed ± reactivity, 4th time / Number of subjects showed + reactivity, 4th time / Number of subjects showed ++ reactivity, 4th time: 4th patch; for Number of subjects showed ± reactivity, 5th time / Number of subjects showed + reactivity, 5th time / Number of subjects showed ++ reactivity, 5th time: 5th patch; for Number of subjects showed ± reactivity, 6th time / Number of subjects showed + reactivity, 6th time / Number of subjects showed ++ reactivity, 6th time: 6th patch; for Number of subjects showed ± reactivity, 7th time / Number of subjects showed + reactivity, 7th time / Number of subjects showed ++ reactivity, 7th time: 7th patch; for Number of subjects showed ± reactivity, 8th time / Number of subjects showed + reactivity, 8th time / Number of subjects showed ++ reactivity, 8th time: 8th patch; for Average reactivity: 9 patches over three weeks, safe when less than 3; for Number of subjects showed ± reactivity, 9th time / Number of subjects showed + reactivity, 9th time / Number of subjects showed ++ reactivity, 9th time: 9th patch
Description: Human repeated insult patch tests (HRIPT) were conducted to determine the cumulative skin irritation by kaempferol3-O-[2-O″-(E)-p-coumaroyl][beta-D-glucopyranosyl-(1→3)-O-alpha-L-rhamnopyranosyl-(1→6)-O-beta-D-glucopyranoside] and to calculate the concentration range in which kaempferol3-O-[2-O″-(E)-p-coumaroyl][beta-D-glucopyranosyl-(1→3)-O-alpha-L-rhamnopyranosyl-(1→6)-O-beta-D-glucopyranoside] can be used on the skin.
Specifically, 15 healthy adult subjects were randomly selected, the test compositions (compositions for skin containing an emulsifier, a stabilizer, purified water, and the like in addition to the compound) containing the compound at 0.5 wt %, 1 wt %, and 3 wt % were dropped by 20 μl per chamber (IQ chamber, Epitest Ltd, Finland), and the patch was applied to the right side of the upper back of the subject and then replaced with new one after 24 hours. The skin reaction was examined before and after the patch test while the patch test was conducted three times a week and thus nine times for three weeks in total in this manner, the skin reaction was observed until the 48th hour after removal of the final patch, and the average reactivity was determined.
The skin reaction was judged according to the criteria of the International Contact Dermatitis Research Group (ICDRG). In the above table, “Novel substance 33” denotes kaempferol3-O-[2-O″-(E)-p-coumaroyl][beta-D-glucopyranosyl-(1→3)-O-alpha-L-rhamnopyranosyl-(1→6)-O-beta-D-glucopyranoside].

T1 sequence (P05067 672-713 limits assumed): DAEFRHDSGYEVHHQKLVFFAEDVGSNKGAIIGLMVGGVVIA

CC1OC(OCC2OC(Oc3c(-c4ccc(O)cc4)oc4cc(O)cc(O)c4c3=O)C(OC(=O)/C=C/c3ccc(O)cc3)C(O)C2O)C(O)C(OC2OC(CO)C(O)C(O)C2O)C1O [Novel substance 33, kaempferol3-O-[2-O″-(E)-p-coumaroyl][beta-D-glucopyranosyl-(1→3)-O-alpha-L-rhamnopyranosyl-(1→6)-O-beta-D-glucopyranoside]]
23.0%: inhibition of beta amyloid aggregation as compared with the positive control group (beta amyloid (Aβ1-42); positive control (only beta amyloid, no compound) taken as 100%)
0: Average reactivity (healthy adult subjects; 0.5 wt %) | Average reactivity (healthy adult subjects; 1 wt %) | Average reactivity (healthy adult subjects; 3 wt %)
without cumulative skin irritation: cumulative skin irritation (healthy adult subjects; HRIPT, 0.5 to 3 wt %)
11235 RFU: Increased RFU (amount of aggregated beta amyloid) (beta amyloid (Aβ1-42); compound 10 μM, Aβ1-42 0.1 mg/ml, thioflavinT, 37° C., 150 minutes)
0 persons: Number of subjects showed ± reactivity, 1st time (healthy adult subjects; 0.5 wt %) | Number of subjects showed + reactivity, 1st time (healthy adult subjects; 0.5 wt %) | Number of subjects showed ++ reactivity, 1st time (healthy adult subjects; 0.5 wt %) | Number of subjects showed ± reactivity, 2nd time (healthy adult subjects; 0.5 wt %) | Number of subjects showed + reactivity, 2nd time (healthy adult subjects; 0.5 wt %) | Number of subjects showed ++ reactivity, 2nd time (healthy adult subjects; 0.5 wt %) | Number of subjects showed ± reactivity, 3rd time (healthy adult subjects; 0.5 wt %) | Number of subjects showed + reactivity, 3rd time (healthy adult subjects; 0.5 wt %) | Number of subjects showed ++ reactivity, 3rd time (healthy adult subjects; 0.5 wt %) | Number of subjects showed ± reactivity, 4th time (healthy adult subjects; 0.5 wt %) | Number of subjects showed + reactivity, 4th time (healthy adult subjects; 0.5 wt %) | Number of subjects showed ++ reactivity, 4th time (healthy adult subjects; 0.5 wt %) | Number of subjects showed ± reactivity, 5th time (healthy adult subjects; 0.5 wt %) | Number of subjects showed + reactivity, 5th time (healthy adult subjects; 0.5 wt %) | Number of subjects showed ++ reactivity, 5th time (healthy adult subjects; 0.5 wt %) | Number of subjects showed ± reactivity, 6th time (healthy adult subjects; 0.5 wt %) | Number of subjects showed + reactivity, 6th time (healthy adult subjects; 0.5 wt %) | Number of subjects showed ++ reactivity, 6th time (healthy adult subjects; 0.5 wt %) | Number of subjects showed ± reactivity, 7th time (healthy adult subjects; 0.5 wt %) | Number of subjects showed + reactivity, 7th time (healthy adult subjects; 0.5 wt %) | Number of subjects showed ++ reactivity, 7th time (healthy adult subjects; 0.5 wt %) | Number of subjects showed ± reactivity, 8th time (healthy adult subjects; 0.5 wt %) | Number of subjects showed + reactivity, 8th time (healthy adult subjects; 0.5 wt %) | Number of subjects showed ++ reactivity, 8th time (healthy adult subjects; 0.5 wt %) | Number of subjects showed ± reactivity, 9th time (healthy adult subjects; 0.5 wt %) | Number of subjects showed + reactivity, 9th time (healthy adult subjects; 0.5 wt %) | Number of subjects showed ++ reactivity, 9th time (healthy adult subjects; 0.5 wt %) | Number of subjects showed ± reactivity, 1st time (healthy adult subjects; 1 wt %) | Number of subjects showed + reactivity, 1st time (healthy adult subjects; 1 wt %) | Number of subjects showed ++ reactivity, 1st time (healthy adult subjects; 1 wt %) | Number of subjects showed ± reactivity, 2nd time (healthy adult subjects; 1 wt %) | Number of subjects showed + reactivity, 2nd time (healthy adult subjects; 1 wt %) | Number of subjects showed ++ reactivity, 2nd time (healthy adult subjects; 1 wt %) | Number of subjects showed ± reactivity, 3rd time (healthy adult subjects; 1 wt %) | Number of subjects showed + reactivity, 3rd time (healthy adult subjects; 1 wt %) | Number of subjects showed ++ reactivity, 3rd time (healthy adult subjects; 1 wt %) | Number of subjects showed ± reactivity, 4th time (healthy adult subjects; 1 wt %) | Number of subjects showed + reactivity, 4th time (healthy adult subjects; 1 wt %) | Number of subjects showed ++ reactivity, 4th time (healthy adult subjects; 1 wt %) | Number of subjects showed ± reactivity, 5th time (healthy adult subjects; 1 wt %) | Number of subjects showed + reactivity, 5th time (healthy adult subjects; 1 wt %) | Number of subjects showed ++ reactivity, 5th time (healthy adult subjects; 1 wt %) | Number of subjects showed ± reactivity, 6th time (healthy adult subjects; 1 wt %) | Number of subjects showed + reactivity, 6th time (healthy adult subjects; 1 wt %) | Number of subjects showed ++ reactivity, 6th time (healthy adult subjects; 1 wt %) | Number of subjects showed ± reactivity, 7th time (healthy adult subjects; 1 wt %) | Number of subjects showed + reactivity, 7th time (healthy adult subjects; 1 wt %) | Number of subjects showed ++ reactivity, 7th time (healthy adult subjects; 1 wt %) | Number of subjects showed ± reactivity, 8th time (healthy adult subjects; 1 wt %) | Number of subjects showed + reactivity, 8th time (healthy adult subjects; 1 wt %) | Number of subjects showed ++ reactivity, 8th time (healthy adult subjects; 1 wt %) | Number of subjects showed ± reactivity, 9th time (healthy adult subjects; 1 wt %) | Number of subjects showed + reactivity, 9th time (healthy adult subjects; 1 wt %) | Number of subjects showed ++ reactivity, 9th time (healthy adult subjects; 1 wt %) | Number of subjects showed ± reactivity, 1st time (healthy adult subjects; 3 wt %) | Number of subjects showed + reactivity, 1st time (healthy adult subjects; 3 wt %) | Number of subjects showed ++ reactivity, 1st time (healthy adult subjects; 3 wt %) | Number of subjects showed ± reactivity, 2nd time (healthy adult subjects; 3 wt %) | Number of subjects showed + reactivity, 2nd time (healthy adult subjects; 3 wt %) | Number of subjects showed ++ reactivity, 2nd time (healthy adult subjects; 3 wt %) | Number of subjects showed ± reactivity, 3rd time (healthy adult subjects; 3 wt %) | Number of subjects showed + reactivity, 3rd time (healthy adult subjects; 3 wt %) | Number of subjects showed ++ reactivity, 3rd time (healthy adult subjects; 3 wt %) | Number of subjects showed ± reactivity, 4th time (healthy adult subjects; 3 wt %) | Number of subjects showed + reactivity, 4th time (healthy adult subjects; 3 wt %) | Number of subjects showed ++ reactivity, 4th time (healthy adult subjects; 3 wt %) | Number of subjects showed ± reactivity, 5th time (healthy adult subjects; 3 wt %) | Number of subjects showed + reactivity, 5th time (healthy adult subjects; 3 wt %) | Number of subjects showed ++ reactivity, 5th time (healthy adult subjects; 3 wt %) | Number of subjects showed ± reactivity, 6th time (healthy adult subjects; 3 wt %) | Number of subjects showed + reactivity, 6th time (healthy adult subjects; 3 wt %) | Number of subjects showed ++ reactivity, 6th time (healthy adult subjects; 3 wt %) | Number of subjects showed ± reactivity, 7th time (healthy adult subjects; 3 wt %) | Number of subjects showed + reactivity, 7th time (healthy adult subjects; 3 wt %) | Number of subjects showed ++ reactivity, 7th time (healthy adult subjects; 3 wt %) | Number of subjects showed ± reactivity, 8th time (healthy adult subjects; 3 wt %) | Number of subjects showed + reactivity, 8th time (healthy adult subjects; 3 wt %) | Number of subjects showed ++ reactivity, 8th time (healthy adult subjects; 3 wt %) | Number of subjects showed ± reactivity, 9th time (healthy adult subjects; 3 wt %) | Number of subjects showed + reactivity, 9th time (healthy adult subjects; 3 wt %) | Number of subjects showed ++ reactivity, 9th time (healthy adult subjects; 3 wt %)
77.0%: Increased RFU (% of Pos. Cont.) (beta amyloid (Aβ1-42); compound 10 μM, Aβ1-42 0.1 mg/ml, 37° C., 150 minutes, Pos. Cont. (beta amyloid only) = 100)
